Test results: ChEMBL document CHEMBL1201862, “PubChem BioAssay data set” (2004)
The source made the active and inactive calls.

Experiments:
[1] = tested on: BJ; test: cells; format: functional, cell-based; details: Homo sapiens
[2] = tested on: BJ; test: cytotoxicity toward BJ-TERT-LT-ST fibroblasts, dose response, cell-based, RAS-independent, luminescence (AID 1935); format: functional; details: Homo sapiens;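 also: BJ fibroblasts immortalized with TERT plus LT and ST oncogenes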
[3] = tested on: Vero; test: cells; format: functional; details: Chlorocebus sabaeus
[4] = tested on: Vero; test: cells; format: functional, cell-based; details: Chlorocebus sabaeus
[5] = cells
[6] = tested on: BJ; test: cytotoxicity toward BJ-TERT fibroblasts, dose response, cell-based, RAS-independent, luminescence (AID 1933); format: functional; details: Homo sapiens
[7] = cytotoxicity toward DRD oncogenic fibroblasts, dose response, cell-based, non-viral oncogenic, luminescence (AID 1934); format: functional; details: Homo sapiens
[8] = HEp-2 cell cytotoxicity, dose response, cytotoxicity control for RSV inhibitor project, HTS (AID 2410); format: functional; details: human respiratory syncytial virus
[9] = tested on: Escherichia coli; test: microbe, parasite or virus in culture
[10] = tested on: SN12K1; test: cells; format: functional; details: Homo sapiens
[11] = tested on: P388/ADR; test: cells; format: functional; details: Mus musculus
[12] = tested on: P388; test: cells; format: functional; details: Mus musculus
[13] = target: Glucose-6-phosphate 1-dehydrogenase (Homo sapiens, UniProt P11413); test: human G6PD enzyme inhibitors, dose response, selectivity assay for P. falciparum G6PD inhibitor project, biochemical, fluorescence (AID 504792); format: functional
Glucose-6-phosphate 1-dehydrogenase, sequence (P11413 whole entry): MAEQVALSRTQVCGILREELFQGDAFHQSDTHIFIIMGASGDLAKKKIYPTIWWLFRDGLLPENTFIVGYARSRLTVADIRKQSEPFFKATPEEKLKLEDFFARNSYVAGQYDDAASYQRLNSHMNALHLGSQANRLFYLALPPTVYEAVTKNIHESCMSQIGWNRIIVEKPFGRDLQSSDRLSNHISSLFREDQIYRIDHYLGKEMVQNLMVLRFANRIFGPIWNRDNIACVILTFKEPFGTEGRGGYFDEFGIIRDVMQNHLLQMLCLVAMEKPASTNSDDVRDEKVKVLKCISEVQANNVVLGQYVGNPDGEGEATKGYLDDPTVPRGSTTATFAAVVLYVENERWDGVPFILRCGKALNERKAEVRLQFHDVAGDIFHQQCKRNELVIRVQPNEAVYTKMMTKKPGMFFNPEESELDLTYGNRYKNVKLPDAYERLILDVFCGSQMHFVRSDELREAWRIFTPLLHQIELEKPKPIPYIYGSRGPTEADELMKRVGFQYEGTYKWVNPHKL

[14] = target: T1, Polyadenylate-binding protein 1 (Homo sapiens, UniProt P11940); test: PABP1 MLLE–PAM2 binding inhibitor potency, dose response, biochemical, fluorescence polarization, FITC-PAM2 peptide (AID 602259); format: functional; details: read-out: IC50_Mean
T1 sequence (P11940 whole entry): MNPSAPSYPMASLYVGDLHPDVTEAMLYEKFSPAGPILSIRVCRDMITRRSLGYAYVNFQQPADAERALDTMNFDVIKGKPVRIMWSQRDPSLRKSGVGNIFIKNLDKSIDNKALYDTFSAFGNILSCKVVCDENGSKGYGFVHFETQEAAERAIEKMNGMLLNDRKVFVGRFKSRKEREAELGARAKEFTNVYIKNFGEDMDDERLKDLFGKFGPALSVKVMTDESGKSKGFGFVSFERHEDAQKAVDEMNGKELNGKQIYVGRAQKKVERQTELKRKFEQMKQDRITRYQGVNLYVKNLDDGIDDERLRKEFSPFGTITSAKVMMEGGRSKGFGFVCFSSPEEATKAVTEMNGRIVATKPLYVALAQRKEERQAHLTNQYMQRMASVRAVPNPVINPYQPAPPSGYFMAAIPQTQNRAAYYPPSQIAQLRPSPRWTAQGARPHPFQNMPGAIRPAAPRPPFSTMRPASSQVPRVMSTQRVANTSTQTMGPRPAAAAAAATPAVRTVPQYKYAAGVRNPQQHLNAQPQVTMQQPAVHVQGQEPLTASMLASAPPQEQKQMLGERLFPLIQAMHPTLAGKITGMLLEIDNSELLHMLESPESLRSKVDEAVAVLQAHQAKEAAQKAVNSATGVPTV

[15] = target: T1, Polyadenylate-binding protein 1; test: PABP1 MLLE–PAM2 interaction inhibitors, dose response, miRNA deadenylation inhibitor project, biochemical, fluorescence polarization, Cy5-PAM2 peptide, secondary (AID 602260); format: functional; details: read-out: IC50_Mean
[16] = target: T2, High affinity choline transporter 1 (Homo sapiens, UniProt Q9GZV3); test: CHT inhibitors, dose response, cell-based, 5-point CRC, membrane potential dye (AID 504840); format: functional
T2 sequence (Q9GZV3 whole entry): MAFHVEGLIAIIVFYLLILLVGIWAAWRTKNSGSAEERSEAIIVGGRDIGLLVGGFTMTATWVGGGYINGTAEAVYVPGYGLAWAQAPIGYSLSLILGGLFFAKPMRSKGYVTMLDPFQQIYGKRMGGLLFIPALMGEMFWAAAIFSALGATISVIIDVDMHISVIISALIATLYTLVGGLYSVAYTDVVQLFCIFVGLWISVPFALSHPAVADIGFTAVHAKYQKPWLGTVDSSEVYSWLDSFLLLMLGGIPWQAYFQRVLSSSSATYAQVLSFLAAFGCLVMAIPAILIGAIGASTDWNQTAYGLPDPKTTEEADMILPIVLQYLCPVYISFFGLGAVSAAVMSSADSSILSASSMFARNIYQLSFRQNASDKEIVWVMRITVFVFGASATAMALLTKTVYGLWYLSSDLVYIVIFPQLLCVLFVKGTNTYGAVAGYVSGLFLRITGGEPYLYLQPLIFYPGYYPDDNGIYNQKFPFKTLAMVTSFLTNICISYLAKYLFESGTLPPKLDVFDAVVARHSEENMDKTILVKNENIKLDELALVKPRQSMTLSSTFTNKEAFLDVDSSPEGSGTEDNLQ

[17] = inhibitors of HIV Env-driven cell fusion, dose response, cherry-pick (AID 652057); format: functional, cell-based
[18] = CEM21 lymphoblast cell cytotoxicity, dose response, cytotoxicity control for viral fusion inhibitor project, CellTiter-Glo luminescence, cherry-picked (AID 652042); format: functional, cell-based;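 also: potency for signal decrease meaning cytotoxicity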
[19] = off-target signal loss in HeLa-CEM21 co-culture – HeLa F-luc CTL cells, cherry-picked, counter-screen for HIV-1 Env fusion inhibitor project, dose response (AID 652040); format: functional, cell-based;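 also: potency for signal decrease marking cytotoxic or nonspecific inhibition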
[20] = ZM109 Env clade C HIV-1 fusion inhibitors, dose response, HeLa effector, CEM target cells, luciferase, cherry-pick (AID 652058); format: functional, cell-based
[21] = cells; format: functional
[22] = intracellular Trypanosoma cruzi inhibitors in host cells – cell-based, plate reader, cherry-pick samples, set 3, dose response (AID 651818); format: functional;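 also: compounds incubated with infected cells for about four days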
[23] = inhibitors of clade B AD8 Env fusion, dose response, cell-based, cherry-pick (AID 652062); format: functional;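 also: luciferase signal from cell-cell fusion driven by HIV-1 clade B AD8 Env; potency is for inhibitors of fusion seen as a drop in luminescence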
[24] = MC4R antagonists, dose response, counter-screen for LGR2 antagonist project, cell-based, plate reader, cherry pick (AID 743444); format: functional;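 also: transfected HEK 293 cells stimulated with alpha-MSH peptide; potency of inhibitors of the alpha-MSH evoked signal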
[25] = HEK293 cell cytotoxicity, dose response, cytotoxicity control, plate reader, cherry-picked samples (AID 743446); format: functional, cell-based
[26] = LGR2 antagonists, dose response, cell-based, HEK293, CRE-luciferase reporter, cherry pick, set 2 (AID 743343); format: functional;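 also: transfected cells were stimulated with diluted bursicon conditioned medium after compound addition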
[27] = A549 cell cytotoxicity, dose response, cytotoxicity control, plate reader, cherry-pick, antagonist series (AID 743412); format: functional, cell-based
[28] = HepG2 cell cytotoxicity, dose response, cytotoxicity control, plate reader, cherry-pick, antagonist series (AID 743416); format: functional, cell-based
[29] = target: Genome polyprotein (dengue virus type 2, UniProt P29990); test: Dengue-2 NS5 methyltransferase inhibitors, primary screen, biochemical, confirmation dose response (AID 588689); format: functional
Genome polyprotein, sequence (P29990 2492-3391 limits assumed): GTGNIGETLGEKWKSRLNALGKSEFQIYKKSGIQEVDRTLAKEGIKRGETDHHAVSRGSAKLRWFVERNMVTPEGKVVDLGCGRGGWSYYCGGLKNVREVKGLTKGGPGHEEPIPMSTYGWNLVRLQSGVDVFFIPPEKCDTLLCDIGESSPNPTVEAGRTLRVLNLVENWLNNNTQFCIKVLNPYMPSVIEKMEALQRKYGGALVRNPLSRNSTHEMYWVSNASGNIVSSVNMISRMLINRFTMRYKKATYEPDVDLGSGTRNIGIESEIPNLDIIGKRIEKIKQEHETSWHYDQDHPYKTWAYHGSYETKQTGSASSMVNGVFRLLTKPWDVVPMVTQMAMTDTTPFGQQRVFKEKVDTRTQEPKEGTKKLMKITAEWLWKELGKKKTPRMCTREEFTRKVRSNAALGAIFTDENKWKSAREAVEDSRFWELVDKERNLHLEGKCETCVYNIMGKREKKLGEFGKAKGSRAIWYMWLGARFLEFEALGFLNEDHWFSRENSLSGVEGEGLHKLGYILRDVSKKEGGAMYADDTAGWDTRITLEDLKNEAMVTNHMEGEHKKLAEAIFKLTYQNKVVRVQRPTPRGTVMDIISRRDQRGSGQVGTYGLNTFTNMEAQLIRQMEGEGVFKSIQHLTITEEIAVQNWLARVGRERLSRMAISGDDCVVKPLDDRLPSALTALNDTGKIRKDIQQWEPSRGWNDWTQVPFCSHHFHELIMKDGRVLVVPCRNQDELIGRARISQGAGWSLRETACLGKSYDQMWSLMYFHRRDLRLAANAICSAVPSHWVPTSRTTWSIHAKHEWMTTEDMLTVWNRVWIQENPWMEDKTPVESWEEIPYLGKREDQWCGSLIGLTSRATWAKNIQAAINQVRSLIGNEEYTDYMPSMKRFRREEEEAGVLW

With `Cc1ccc(-n2c(SCC(=O)Nc3ncc(Cl)cc3Cl)nc3ccccc32)cc1` the EC50 [1] was 64.6 µM (active), the EC50 [2] was > 150 µM (not active) and the CC50 [3] was > 25 µM (active). The IC50 [4] was 0.72 µM (active), the IC50 [5] was 1.1 µM (active) and the EC50 [6] was 115 µM (active). For the same molecule, the EC50 [7] was 30.6 µM (inconclusive) and the CC50 [8] was 2.33 µM (active).
For `CC(=O)NS(=O)(=O)c1ccc(NC(=O)c2cc(-c3cccs3)nc3ccccc23)cc1`, the AC50 [9] was 36.4 µM (active).
In the case of `N[C@H](C(=O)O)[C@H]1ON=C(Cl)[C@@H]1O`, the GI50 [10] is reported as 1.07 µM (active), the GI50 [11] is reported as 2.23 µM (inactive) and the GI50 [12] is reported as 2.17 µM (inactive).
In the case of `Cc1ccc(C(=O)NCC(=O)NCC(=O)OCC(=O)c2ccc([N+](=O)[O-])cc2)cc1`, the IC50 [13] is reported as > 80 µM (inactive).
In the case of `CC1CN(C(=S)c2cccc([N+](=O)[O-])c2)CC(C)O1` (stereo unspecified), the IC50 [14] is reported as > 66 µM (inactive) and the IC50 [15] is reported as > 66 µM (inactive).
With `Cc1nn(Cc2ccccc2Cl)c(C)c1NC(=O)c1ccn(C)n1` the AC50 [9] was 19.1 µM (active).
With `O=C1NC(=O)C2(CCc3ccc(N(CCCl)CCCl)cc32)N1` (stereo unspecified) the GI50 [10] was 15 µM (inactive), the GI50 [11] was 2.1 µM (inactive) and the GI50 [12] was 1.35 µM (inactive).
In the case of `O=C(COC(=O)CCCSc1nc2ccccc2[nH]1)NC(=O)NC1CCCC1`, the IC50 [16] is reported as 7.24 µM (active).
In the case of `COc1cc(SC)ccc1C(=O)OCC(=O)NC(=O)NC(C)C`, the AC50 [9] is reported as 28.2 µM (active).
With `NC(Cc1ccc(F)cc1)c1csc(Nc2ccc(C(F)(F)F)cn2)n1` (stereo unspecified) the AC50 [17] was 10 µM (active), the AC50 [18] was 9.3 µM (active) and the AC50 [19] was 9.07 µM (active). For the same molecule, the AC50 [20] was 7.7 µM (active).
With `COc1cccc(CNC(=O)c2cc3oc4ccccc4c3n2C)c1OC` the IC50 [5] was 4.72 µM (active) and the CC50 [8] was 11.7 µM (active).
For `CC(=O)N1CCN(c2cc3c(cc2F)c(=O)c(C(=O)O)cn3C2CC2)CC1`, the IC50 [21] was 2.11 µM (active) and the AC50 [9] was 1.06 µM (active).
For `C[C@@H]1CN([C@H](C)CO)C(=O)c2cccc(NC(=O)Nc3ccc(C(F)(F)F)cc3)c2O[C@H]1CN(C)Cc1ccc2c(c1)OCO2`, the AC50 [22] was 1.82 µM (active).
With `CC1C(O)[C@@]2(OC[C@@]34C(=O)CC5(O)[C@H](CCC6Cc7nc8c(nc7C[C@]65C)CC5CC[C@@H]6C7=C[C@H]9O[C@@]%10(O[C@@](C)(CO)C[C@@H]%10O)C(C)[C@@]9(O)[C@]7(C)[C@@H](O)CC6[C@]5(C)C8)C3=CC[C@H]4C2C)OC1(C)C` (stereo partly specified) the GI50 [10] was > 3.55 µM (inactive), the GI50 [11] was 0.00203 µM (active) and the GI50 [12] was < 0.000355 µM (active).
With `COc1ccccc1S(=O)(=O)Cc1ccc(C(=O)N2CCN(c3cccc(Cl)c3)CC2)o1` the AC50 [18] was 17.1 µM (active), the AC50 [19] was > 70 µM (inactive) and the AC50 [23] was 43 µM (active).
In the case of `CC1=C(C(=O)O)N2C(=O)C(NC(=O)c3ccn(C)n3)C2SC1` (stereo unspecified), the IC50 [14] is reported as > 66 µM (inactive) and the IC50 [15] is reported as > 66 µM (inactive).
In the case of `C[C@@H]1CN([C@H](C)CO)C(=O)c2cccc(NC(=O)c3nc4ccccc4s3)c2O[C@@H]1CN(C)Cc1ccc(C(F)(F)F)cc1`, the AC50 [22] is reported as 5.42 µM (active).
In the case of `CSCCC(c1nnnn1-c1c(C)cccc1C)N1CCC(n2c(O)nc3ccccc32)CC1` (stereo unspecified), the AC50 [24] is reported as 20.5 µM (active), the AC50 [25] is reported as 22.4 µM (active) and the AC50 [26] is reported as 16.5 µM (active). The AC50 [27] was 18.3 µM (active) and the AC50 [28] was 36.5 µM (active).
With `Cc1cc(O)c(C(C)C)cc1N=Cc1ccccc1[N+](=O)[O-]` the IC50 [29] was > 100 µM (active) and the IC50 [13] was > 80 µM (inactive).
